Laboratory results as given in patent US12599560B2, “Lipids and lipid nanoparticle formulations” (Longuide Biopharma Corporation, priority 2023, dated 2026).

Legend:
[1] = Potential characterization of nanoparticle preparations; format: physicochemical
Protocol: 20 μL of the nucleic acid lipid nanoparticle solution (containing about 0.04 mg/mL mRNA) was taken and added with 780 μL of ultrapure water, used a pipette tip to gently blow and mix, and the potential of the nanopreparation was detected by Malvern particle sizer (model ZEN3700). 27.5 μL nucleic acid lipid nanoparticle solution (containing about 0.04 mg/mL mRNA) was taken and added with 200 μL ultrapure water. A pipette tip was used to gently blow the sample and mix well. The particle size of the nanopreparation was detected by Malvern Dynamic Light Scattering Instrument (Malvern Instruments Ltd., ZEN3700, UK). After the detection, the sample was recovered to an EP tube, and 600 μL of ultrapure water was added, gently blown with a pipette tip, and the potential of the nanopreparation was measured by a Malvern particle size meter.

[2] = Stability of LNP formulations after storage; format: physicochemical; conditions: both formulations; physical stability and in vivo delivery efficiency
Protocol: Excipients and/or cryoprotectants, such as sucrose, can be added to the nucleic acid lipid nanoparticle preparation obtained in step 6 or to the nucleic acid lipid nanoparticle preparation obtained after dialysis in step 7. As an example, 40% sucrose (Aladdin Reagent (Shanghai) Co., Ltd.) was added to the nucleic acid lipid nanoparticle preparation with the volume ratio of 3:1, which is mixed homogeneously to obtain nucleic acid lipid nanoparticle preparation containing 10% sucrose, and further aliquoted into ribozyme-free centrifuge tubes and stored in an ice box, 4° C., −20° C., and/or −80° C. refrigerator for later use. Physicochemical property measurement and in vivo effect validation of the lipid nanoparticles were performed after thawing and returning to room temperature after storage for the indicated time.

[3] = Particle size and PDI by dynamic light scattering; format: physicochemical; conditions: Table 2; for Particle size (nm): LNP formulation with mRNA; for PDI: polydispersity value
Method in brief: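 Lipid nanoparticle solution (about 0.04 mg/mL mRNA) diluted in ultrapure water and particle size measured by dynamic light scattering on a Malvern instrument. Sample then further diluted with water for potential measurement.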

[4] = tested on: A549 cells; assay: Cell transfection assay (D-Luciferin), A549; format: cell-based
Protocol: A549 cells were digested and collected the day before treatment and the cell concentration was adjusted to 2*10^5 cells/mL, 200 μL cell culture medium with a concentration of 2*10^5 cells/mL was added to the 96-well plate, resulting in approximately 4*10^4 cells per well in the 96-well plate. Digested and collected DC2.4 cells and adjusted the cell concentration to 1*10^5 cells/mL, added 200 μL cell culture medium with a concentration of 1*10^5 cells/mL to the 96-well plate, so that the number of cells per well in the 96-well plate is approximately 2*10^4. The cells were incubated in a cell culture incubator (Esco Micro Pte Ltd, Singapore, CLM-170B-8-NF) at 37° C. 5% CO2 for 24 h.
On the day of cell treatment, the medium (Thermo Fisher Scientific) was aspirated from the 96-well plate, 200 μL of PBS was added to each well to rinse the cells and then the PBS (Thermo Fisher Scientific) was removed, and 180 μL of opti-MEM (Thermo Fisher Scientific) was added to each well of the treatment group.
Different volumes of the preparation were taken and diluted by adding the buffer used for the preparation or the buffer used for dialysis, and four dosing concentrations were prepared for each preparation, and 20 μL of the diluted nanopreparation was added to each well of a 96-well plate (3 replicate wells for each concentration), and the dosing concentrations of the preparation were about 50 ng mRNA/well, 100 ng mRNA/well, 200 ng mRNA/well, and 300 ng mRNA/well, respectively.
The 96-well cell culture plate was placed in a cell culture incubator and incubated at 37° C. 5% CO2 for 4 h. The medium was sucked up, and 200 μL of DMEM complete medium was added to each well and incubated for 20 h for detection.
D-Luciferin (Biohub International Trade Co., Ltd.) stock solution (9900 μL of complete medium+100 μL of 25 mg/mL of D-Luciferin stock solution) was diluted with DMEM complete medium at 99:1 to make a working solution at the concentration of 250 μg/mL (25 μg per well).
The 96-well cell culture plate was taken out and the supernatant was removed. Before imaging, the 96-well plate was added with 100 μL of D-Luciferin working solution, incubated at 37° C. for 5 min, and imaged and analyzed by the plate reader.

[5] = Nucleic acid encapsulation efficiency by fluorescence (RiboGreen); format: physicochemical
Protocol: The nucleic acid encapsulation rate of the nucleic acids lipid nanoparticle formulations obtained in steps 6, 7, and 8 can be determined by fluorescence methods, such as using the Quant-iT™ RiboGreen RNA Quantification Kit (Thermo Fisher Scientific). Take the RiboGreen RNA Quantification Kit as an example: Configure the low-range working solution and mRNA standard solution according to the instructions. Take 3 μL of the nucleic acid lipid nanoparticle solution obtained in step 6, add 297 μL of the Tris-EDTA buffer (TE buffer) provided with the kit, mix well, and then suck up 100 μL of it into the black-bottomed ninety-six-well plate, and then add 100 μL of the RiboGreen low-range detection working solution. Add 100 μL of different concentrations of mRNA standard solution into the black bottom 96-well plate, and add 100 μL of RiboGreen low-range detection working solution. After gently blowing and mixing well, incubate for 5 minutes away from light, and then immediately detect and record the fluorescence signal intensity using a multifunctional enzyme labeling instrument (BMG LABTECH, FLUOstar Omega). The free mRNA content not encapsulated by the lipid nanoparticles was calculated by standard curve fitting and calculation, and then divided by the total amount of mRNA in the wells detected to find the nucleic acid encapsulation rate of this nucleic acid lipid nanoparticle preparation.

[6] = formulation No. 1, molar ratio 1.50:20:33.50:45.00
[7] = formulation No. 2, molar ratio 1.50:11.50:38.50:48.50
[8] = molar ratio 1.50:11.50:38.50:48.50, N/P 24
[9] = molar ratio 1.50:20.00:33.50:45.00, N/P 40
[10] = molar ratio 1.71:12.98:45.31:40.00, N/P 40

## CCCCCCCCCCCCOC(=O)C(O)CN(CCCN1CCN(CCCN(CC(O)C(=O)OCCCCCCCCCCCC)CC(O)C(=O)OCCCCCCCCCCCC)CC1)CC(O)C(=O)OCCCCCCCCCCCC (stereo not drawn) [Compound L0191]
[1]; [6]
  Zeta potential: 11.30 ± 0.69
[1]; [7]
  Zeta potential: 12.67 ± 0.61
[2]
  stability after storage under different conditions: excellent stability
[3]; [8]
  Particle size (nm): 75.33 ± 0.78 nm
  PDI: 0.10 ± 0.01
[3]; [9]
  Particle size (nm): 70.87 ± 0.35 nm
  PDI: 0.17 ± 0.01
[3]; [10]
  Particle size (nm): 92.00 ± 0.39 nm
  PDI: 0.15 ± 0.02
[4]; all tested formulations, A549 and DC2.4 cells
  transfection efficiency (in words): high
[4]; formulation No. 1 (1.50:20:33.50:45.00), 50 ng/well
  A549 transfection/RLU: 61522.00 RLU
[4]; formulation No. 1, 100 ng/well
  A549 transfection/RLU: 80557.33 RLU
[4]; formulation No. 1, 200 ng/well
  A549 transfection/RLU: 81404.33 RLU
[4]; formulation No. 1, 300 ng/well
  A549 transfection/RLU: 84806.33 RLU
[4]; formulation No. 2 (1.50:11.50:38.50:48.50), 50 ng/well
  A549 transfection/RLU: 31491.33 RLU
[4]; formulation No. 2, 100 ng/well
  A549 transfection/RLU: 54866.67 RLU
[4]; formulation No. 2, 200 ng/well
  A549 transfection/RLU: 90775.67 RLU
[4]; formulation No. 2, 300 ng/well
  A549 transfection/RLU: 88154.33 RLU
[5]; all tested formulations
  encapsulation efficiency (in words): high
[5]; [6]
  encapsulation efficiency: 96.26%
[5]; [7]
  encapsulation efficiency: 97.92%
